Results reported in patent publication US12312599B2, “Methods, compositions, and kits for producing beige adipocytes and treating metabolic disorders” (MaineHealth, priority 2018, dated 2025).

Assays:
FD-MSCs [1] = test: Beige adipogenic precursor markers in FD-MSCs (flow cytometry, immunostaining, qPCR); type: cell-based, human; settings: SB pretreatment 2 days
Experimental: (§1) All assays were performed between 7 and 15 passages. For osteocyte differentiation, mature MSCs were grown in 24 well culture plates to 100% confluency in MesenCult-ACF and induced to differentiate in OsteoLife Complete Osteogenesis Medium (Lifeline Cell Technology) for 21 days prior to staining with Lifeline Alizarin Red Stain to visualize calcium deposition. For chondrocyte differentiation. For beige adipogenic precursor generation, cells were grown in 24 well culture plates to 90% confluence and treated with 5 uM SB413542 (Sigma) and 10 nM human IL-4 (Peprotech) for 2 days. For beige adipogenic induction, adipogenic precursors are differentiated for 3 days with adipogenic medium consisting of T3 (2 nM), insulin (170 nM), rosiglitazone (1 μM), SB413542 (5 uM), IBMX (0.5 mM), dexamethasone (5 μM) and indomethacin (125 μM) in EGM-2 medium (Lonza) supplemented with the BulletKit minus FGF2 (modified from^33). Thereafter, cells are maintained in adipogenic medium without IBMX, dexamethasone and indomethacin. The medium was changed every 3 days and adipocytes were fully differentiated by 9-12 days as determined by lipid accumulation and peak expression of UCP1.
Cell Isolation, Expansion and Differentiation of Interscapular Brown Adipose Tissue Preadipocytes • 1. Prior to adipose cell isolation, warm DMEM, FBS and cell wash buffer to room temperature. • 2. In a laminar flow cabinet for cell culture, place 5 g of adipose tissue on a 100×20 mm dish. Suspend tissue in 1 mL of Adipose Tissue Dissociation Kit enzyme digest cocktail and finely mince with a razorblade. • 3. Transfer cell suspension slurry to a 5 mL polystyrene round bottom tube and add an additional 1.5 mL of enzyme digest cocktail to tube. • 4. Incubate tube at 37° C. on a rotating nutator for 30 minutes. During incubation period, briefly vortex sample for 5 s in 10-minute intervals. • 5. Transfer cells to a 15 mL tube and add 5 mL of DMEM. Filter cell suspension through a 100 μm strainer into a new 15 mL tube and centrifuge at 300 g for 5 minutes to form a pellet. • 6. Remove supernatant and leave behind […] of DMEM. […]

FD-MSCs [2] = test: PLIN and PPARγ2 immunostaining of differentiated FD-MSC cultures; type: cell-based, human; settings: SB-treated cultures
Experimental: as §1
Cell Isolation, Expansion and Differentiation of Interscapular Brown Adipose Tissue Preadipocytes • 1. Prior to adipose cell isolation, warm DMEM, FBS and cell wash buffer to room temperature. • 2. […]

## NC(=O)c1ccc(-c2nc(-c3ccc4c(c3)OCO4)c(-c3ccccn3)[nH]2)cc1 [SB, SB431542]
FD-MSCs [1]
  cell surface expression of PDGFRα and MSCA1: increased
  nuclear accumulation of EBF2: significantly increased
FD-MSCs [2]
  cells in culture that are mature adipocytes (PLIN and PPARγ2 staining): 87%-88%
